According to patent publication US9833497B2, “Human originated EGF domain proteins and use of the same” (CHENGDU SOURCEBIO LIMITED-LIABILITY COMPANY, priority 2013, dated 2017):

How the values were obtained:
Format in all cases: cell-based
[1] = test system: Aeromonas hydrophila; assay: MIC against Gram-negative bacteria: Aeromonas hydrophila; settings: 5×10^5 CFU/mL; for MIC A. hydrophila: two-fold serial dilution
How it was run: (§1)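 The recombinant human-originated EGF domain proteins were serially diluted two-fold against bacteria at 5×10^5 CFU/mL in LB medium. After shaken incubation at 37° C, the lowest concentration with no bacterial growth was recorded as the MIC.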

[2] = test system: Klebsiella pneumonia; assay: MIC against Gram-negative bacteria: Klebsiella pneumonia; settings: 5×10^5 CFU/mL; for MIC K. pneumonia: two-fold serial dilution
How it was run: as §1

[3] = test system: Serratia marcescens; assay: MIC against Gram-negative bacteria: Serratia marcescens; settings: 5×10^5 CFU/mL; for MIC S. marcescens: two-fold serial dilution
How it was run: as §1

[4] = test system: Proteus mirabilis; assay: MIC against Gram-negative bacteria: Proteus mirabilis; settings: 5×10^5 CFU/mL; for MIC P. mirabilis: two-fold serial dilution
How it was run: as §1

[5] = test system: Citrobacter diversus; assay: MIC against Gram-negative bacteria: Citrobacter diversus; settings: 5×10^5 CFU/mL; for MIC C. diversus: two-fold serial dilution
How it was run: as §1

[6] = test system: Pseudomonas aeruginosa; assay: MIC against Gram-negative bacteria: Pseudomonas aeruginosa; settings: 5×10^5 CFU/mL; for MIC P. aeruginosa: two-fold serial dilution
How it was run: as §1

[7] = test system: E. coli BL21; assay: MIC against Gram-negative bacteria: E. coli BL21; settings: 5×10^5 CFU/mL; for MIC E. coli BL21: two-fold serial dilution
How it was run: as §1

[8] = test system: Proteus vulgaris; assay: MIC against Gram-negative bacteria: Proteus vulgaris; settings: 5×10^5 CFU/mL; for MIC P. vulgaris: two-fold serial dilution
How it was run: as §1

[9] = test system: Enterobacter cloacae; assay: MIC against Gram-negative bacteria: Enterobacter cloacae; settings: 5×10^5 CFU/mL; for MIC E. cloacae: two-fold serial dilution
How it was run: as §1

[10] = test system: E. coli DH5α; assay: Antibacterial activity: MIC and growth curve against E. coli DH5α in 96-well plate; settings: minimal inhibitory concentration against E. coli DH5α; 96-well plate, 5×10^5 CFU/mL, 37° C., judged after 8 h
How it was run: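 Log-phase DH5α (OD600 about 0.5, 37° C, 185 rpm in LB) was pelleted, resuspended in fresh LB and seeded at 5×10^5 CFU/mL with recombinant protein at 50, 25 and 12.5 μg/mL (two-fold series), in triplicate. Plates were shaken at 175 rpm, 37° C, and OD600 was read every 30 min. MIC was the lowest concentration with no growth.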

[11] = test system: Moraxella catarrhalis; assay: MIC against Gram-negative bacteria: Moraxella catarrhalis; settings: 5×10^5 CFU/mL; for MIC M. catarrhalis: two-fold serial dilution
How it was run: as §1

[12] = E. coli BL21, 10 h cultivation at 37° C.

Substance | MIC A. hydrophila ([1]; 10 h cultivation at 37° C.) [mg/L] | MIC K. pneumonia ([2]; 10 h cultivation at 37° C.) [mg/L] | MIC S. marcescens ([3]; 10 h cultivation at 37° C.) [mg/L] | MIC P. mirabilis ([4]; 10 h cultivation at 37° C.) [mg/L] | MIC C. diversus ([5]; 10 h cultivation at 37° C.) [mg/L] | MIC P. aeruginosa ([6]; 10 h cultivation at 37° C.) [mg/L] | MIC E. coli BL21 ([7]; 10 h cultivation at 37° C.) [mg/L] | MIC P. vulgaris ([8]; 10 h cultivation at 37° C.) [mg/L] | MIC E. cloacae ([9]; 10 h cultivation at 37° C.) [mg/L] | MIC [10] [mg/L] | MIC M. catarrhalis ([11]; 10 h cultivation at 37° C.) [mg/L] | MIC (μg/mL) A. hydrophila ([1]; 10 h cultivation at 37° C.) [µg/mL] | MIC (μg/mL) K. pneumonia ([2]; 10 h cultivation at 37° C.) [µg/mL] | MIC (μg/mL) S. marcescens ([3]; 10 h cultivation at 37° C.) [µg/mL] | MIC (μg/mL) P. mirabilis ([4]; 10 h cultivation at 37° C.) [µg/mL] | MIC (μg/mL) C. diversus ([5]; 10 h cultivation at 37° C.) [µg/mL] | MIC (μg/mL) P. aeruginosa ([6]; 10 h cultivation at 37° C.) [µg/mL] | MIC (μg/mL) E. coli BL21 [7, 12] [µg/mL] | MIC (μg/mL) P. vulgaris ([8]; 10 h cultivation at 37° C.) [µg/mL] | MIC (μg/mL) E. cloacae ([9]; 10 h cultivation at 37° C.) [µg/mL] | also measured
PRT1134 (NVDDCLMRPCANGATCLDGINRFSCLCPEGFAGRFCT; listed as Homo sapiens) | 12.5 | 25 | 12.5 | 12.5 | 12.5 | 12.5 | 25 | 50 | 12.5 | 12.5 | 12.5 |  |  |  |  |  |  |  |  |  | 
PRT761 (RKDVCQAIDHGCEHICVNSDDSYTCECLEGFRLAEDGKRCR; listed as Homo sapiens) |  |  |  |  |  |  |  |  |  | 50 |  | 25 | 12.5 | 25 | 50 | 12.5 | 50 | 12.5 | 12.5 | 50 | MIC (μg/mL) M. catarrhalis ([11]; 10 h cultivation at 37° C.): 25 µg/mL
PRT554 (CNCESDFTDGTCEDLTGRCYCRPNFSGERCDVCAEGFTGFPSCYPT; listed as Homo sapiens) |  |  |  |  |  |  |  |  |  | 12.5 |  |  |  |  |  |  |  |  |  |  | MIC against A. hydrophila ([1]; 96-well plate, 37° C., 10 h): 12.5 mg/L; MIC against K. pneumonia ([2]; 96-well plate, 37° C., 10 h): 50 mg/L; MIC against S. marcescens ([3]; 96-well plate, 37° C., 10 h): 25 mg/L; MIC against P. mirabilis ([4]; 96-well plate, 37° C., 10 h): 25 mg/L; MIC against C. diversus ([5]; 96-well plate, 37° C., 10 h): 25 mg/L; MIC against P. aeruginosa ([6]; 96-well plate, 37° C., 10 h): 12.5 mg/L; MIC against E. coli BL21 ([7]; 96-well plate, 37° C., 10 h): 50 mg/L; MIC against P. vulgaris ([8]; 96-well plate, 37° C., 10 h): 12.5 mg/L; MIC against E. cloacae ([9]; 96-well plate, 37° C., 10 h): 25 mg/L; MIC against M. catarrhalis ([11]; 96-well plate, 37° C., 10 h): 50 mg/L
PRT263 (CSKNNGGCSPYATCKSTGDGQRTCTCDTAHTVGDGLTC; listed as Homo sapiens) |  |  |  |  |  |  |  |  |  | 25 |  | 25 | 25 | 50 | 12.5 | 12.5 | 12.5 | 25 | 12.5 | 12.5 | MIC (μg/mL) M. catarrhalis ([11]; 10 h cultivation at 37° C.): 12.5 µg/mL
PRT1173 (KCIPHPGCVHGICNEPWQCLCETNWGGQLCD; listed as Homo sapiens) | 12.5 | 25 | 50 | 50 | 50 | 12.5 | 25 | 12.5 | 12.5 | 12.5 | 12.5 |  |  |  |  |  |  |  |  |  | 
PRT1345 (NINECSSSPCLNKGICVDGVAGYRCTCVKGFVGLHCE; listed as Homo sapiens) |  |  |  |  |  |  |  |  |  | 12.5 |  |  |  |  |  |  |  |  |  |  | MIC against A. hydrophila ([1]; Aeromonas hydrophila, 10 h cultivation at 37° C.): 25 mg/L; MIC against K. pneumonia ([2]; Klebsiella pneumonia, 10 h cultivation at 37° C.): 25 mg/L; MIC against S. marcescens ([3]; Serratia marcescens, 10 h cultivation at 37° C.): 50 mg/L; MIC against P. mirabilis ([4]; Proteus mirabilis, 10 h cultivation at 37° C.): 12.5 mg/L; MIC against C. diversus ([5]; Citrobacter diversus, 10 h cultivation at 37° C.): 50 mg/L; MIC against P. aeruginosa ([6]; Pseudomonas aeruginosa, 10 h cultivation at 37° C.): 50 mg/L; MIC against E. coli BL21 [7, 12]: 25 mg/L; MIC against P. vulgaris ([8]; Proteus vulgaris, 10 h cultivation at 37° C.): 25 mg/L; MIC against E. cloacae ([9]; Enterobacter cloacae, 10 h cultivation at 37° C.): 12.5 mg/L; MIC against M. catarrhalis ([11]; Moraxella catarrhalis, 10 h cultivation at 37° C.): 25 mg/L
